Structures are written as SMILES. Marks after values point to notes of the source that are not given here.

The nature of data set [1]: Proton dissociation and H2O/Cl- exchange constants of the complexes (UV-vis, 1H NMR). To be noted: T = 25.0 °C; for logK′ (H2O/Cl−) conditional exchange constant: pH 7.4; for pKa1 of the complex / pKa2 of the complex: I = 0.2 M KNO3. It is filed as physicochemical. The protocol: In the basic pH range, both the UV-vis and ^1H NMR spectra recorded for the [M(arene)(H2O)3]^2+–ligand (1:1) systems reveal the further chemical transformation of the [M(arene)(HQCl-D-(h)ProH−1)(H2O)]^+ species. […] It should be noted that peaks of the p-cymene CH3 groups are doubled at pH > 10 (Figure S21b), indicating the loss of their symmetry due to the formation of the hydroxido complex, which probably blocks the free rotation of the arene ligand. Two pKa values were determined by both methods for each RuCym complex that is in good agreement (Table 3).
These deprotonation processes take place at somewhat higher pH in the case of the RhCp* complexes compared to the RuCym compounds; however, other differences were also observed.
Thus, only one pKa value could be computed (Table 3), which is rather assigned to the H2O → OH^− process. The peaks of the protons in the ^1H NMR spectra located nearby the metal center (both 8-hydroxyquinoline CH and CH3 protons of RhCp*) and the peaks of the homoproline moiety are shifted by increasing the pH (Figure S22b,c). […] Due to this side-reaction, no pKa values were calculated from the ^1H NMR spectra.
Based on the determined pKa values of the complexes (Table 3), it can be concluded that at physiological pH all of them are present predominantly in their [M(arene)(HQCl-D-(h)ProH−1)(H2O)]^+ form. However, in the presence of chloride ions, the exchange of the aqua ligand to the halide ligand is possible. The water/chloride co-ligand exchange process was monitored spectrophotometrically at pH 7.4, as it was performed for other RuCym and RhCp* complexes in our previous works. […] It can be concluded that the RhCp* complexes have stronger chloride ion affinity. The coordination of the chloride ion changes the charge of the complex; thus, it will also influence lipophilicity. In order to characterize the hydrophilic/lipophilic character of the complexes, n-octanol/buffer aqueous solution partitioning was performed at pH 7.4. The measurements were performed at three kinds of chloride ion concentrations regarding different biofluids (4, 24 and 100 mM for nucleus, cytosol and blood, respectively). The calculated logD7.4 values can be found in Figure 8.
Agilent Cary 8454 diode array spectrophotometer was utilized to obtain UV-vis spectra in the wavelength range 190–1100 nm. The path length (ℓ) was 1 cm in most cases (the actual ℓ is always indicated in the legends of the figures). The concentrations of the ligands and complexes were between 88 and 240 µM. For HSA and ct-DNA containing samples, complex concentrations were 100 µM, and 0.5 and 2 equiv. biomolecule were added for kinetic studies, respectively. Individual samples contained 0–20 µM HSA and 0–1.75 mM (nucleotide) ct-DNA. Spectra were always background corrected. The computer program HypSpec was used to obtain stability constants.
(§1) Bruker Avance III HD Ascend 500 Plus instrument (Billerica, MA, USA) was used for NMR studies. ^1H NMR spectroscopic measurements were carried out with a WATERGATE water suppression pulse scheme in the presence of 10% (v/v) D2O in most cases. DSS internal standard was added to samples to obtain reference peaks. Complex concentrations were 0.5 mM or 1.0 mM, and 0.5 equiv. HSA was added. ^1H NMR titrations were carried out in the presence of 0.2 M KNO3. With the FHA model peptide, the measurements were performed at 0.5 or 1 mM metal complex concentrations, and 1:1, 1:2 or 2:1 peptide-to-metal complex ratios were applied. The computer program HypSpec was used to obtain stability constants.

The subject of the next data set is Ac-Phe–His–Ala-NH2 (FHA). Briefly: Binding to the His model tripeptide FHA by 1H NMR. To be noted: pH 7.4 (PBS’), 0.5 or 1 mM.
Excerpt: The slow binding kinetics indicates coordination binding mode, and the monodentate coordination of a side chain donor of HSA takes place most likely by the replacement of the co-ligand water or chloride, while the original bidentate (N,O) ligand remains coordinated, as it was also reported to analogous high stability RuCym and RhCp* complexes.
Similar reaction rates with FHA were found for the HQCl-D-Pro and HQCl-D-hPro complexes, and the reaction with this simple oligopeptide is much faster compared to the HSA. Conditional stability constants determined for the complex-FHA ternary species by ^1H NMR spectroscopic measurements (exemplary spectra are presented in Figure S29) are shown in Table 4. […] In all, this oligopeptide model can serve as a good binding model for surface-exposed side chains, although it provides limited information about binding events at more deeply located binding pockets of HSA, where the role of secondary interactions might be more significant.
as §1

The subject of another data set is Colo-205 cells. Briefly: Annexin V-FITC / propidium iodide apoptosis induction assay, flow cytometry. The following applies: 25 μM, 3 h induction. It is filed as cell-based, human. From the text: 12H-Benzo[α]phenothiazine (M627) and cisplatin were used as positive controls. Annexin-V assay offers the possibility of detecting early phases of apoptosis. Apoptosis is a morphologically and biochemically distinct form of programmed cell death, which is the preferred mode of action for an anticancer compound. PI was used to distinguish between viable, early apoptotic and necrotic or late apoptotic cells. […] In order to better understand the different behavior of the studied compounds, an in-depth analysis of the various solution (physico-)chemical properties of the ligands and complexes were performed.
The assay was carried out using an Annexin V-FITC Apoptosis Detection Kit from Sigma-Aldrich according to the manufacturer’s instructions. The concentration of the Colo-205 cell suspension was adjusted to approximately 0.5 × 10^6 cells per mL in RPMI 1640 medium, and the cell suspension was distributed in 1 mL aliquots into a 24-well plate and then incubated overnight at 37 °C and 5% CO2. The next day, the medium was removed and replaced by 1 mL RPMI 1640 medium containing the compounds except for the control samples. […] After the incubation period, the samples were washed with PBS, and a fresh medium was added to the samples. The cells were incubated overnight at 37 °C and 5% CO2. The next day, 200 μL 0.25% Trypsin (Trypsin-Versen) was added to the samples until cells appeared detached, followed by the addition of 400 μL of medium supplemented with 10% bovine serum. The cells were collected in Eppendorf tubes and centrifuged at 2000× g for 2 min. The harvested cells were re-suspended in a fresh serum-free RPMI 1640 culture medium. After this step, the apoptosis assay was carried out according to the protocol of the kit. The fluorescence was analyzed immediately using a ParTec CyFlow flow cytometer (Partec GmbH, Münster, Germany).
(A flow cytometer gives signals particle by particle.)

For `Cc1c(C)c(C)[c-](C)c1C.O=C(O)[C@H]1CCC[NH+]1Cc1cc(Cl)c2cccnc2c1[O-].[Cl-].[Cl-].[Rh+3]` [RhCp*–HQCl-D-Pro, [RhCp*(HQCl-D-Pro)Cl]Cl], the “logK′ (H2O/Cl−) conditional exchange constant” value in data set [1] (UV-vis) was determined as 1.72 ± 0.01. Moreover, in data set [1] (UV-vis, chloride-free), the “pKa1 of the complex” value was found to be 10.08 ± 0.02. For the same compound, the “FHA logKFHA′” value in the data set on Ac-Phe–His–Ala-NH2 (FHA) was found to be 4.4 ± 0.2.
As for `Cc1ccc(C(C)C)cc1.O=C(O)[C@H]1CCC[NH+]1Cc1cc(Cl)c2cccnc2c1[O-].[Cl-].[Cl-].[Ru+2]` [RuCym–HQCl-D-Pro, [RuCym(HQCl-D-Pro)Cl]Cl], in data set [1] (1H NMR), the “pKa1 of the complex” value worked out at 9.02 ± 0.07 and the “pKa2 of the complex” value is 10.69 ± 0.06. The “logK′ (H2O/Cl−) conditional exchange constant” value in data set [1] (UV-vis) worked out at 1.18 ± 0.01. Besides, in data set [1] (UV-vis, chloride-free), the “pKa1 of the complex” value turned out to be 8.96 ± 0.01 and the “pKa2 of the complex” value is 10.67 ± 0.01. For the same compound, the “FHA logKFHA′” value in the data set on Ac-Phe–His–Ala-NH2 (FHA) is recorded as 4.4 ± 0.3. Moreover, in the data set with Colo-205 cells, the “cell death (Q1, A− PI+), gated events” value came to 27.9%; the “early apoptosis (Q3, A+ PI−), gated events” value (“early apoptosis (Q3, A+ PI−)” for short) was found to be 0.288%; the “late apoptosis and necrosis (Q2, A+ PI+), gated events” value (“late apoptosis and necrosis” for short) turned out to be 5.37%.
For `Cc1ccc(C(C)C)cc1.O=C(O)[C@H]1CCCC[NH+]1Cc1cc(Cl)c2cccnc2c1[O-].[Cl-].[Cl-].[Ru+2]` [RuCym–HQCl-D-hPro, [RuCym(HQCl-D-hPro)Cl]Cl], in data set [1] (1H NMR), the “pKa1 of the complex” value turned out to be 8.77 ± 0.05 and the “pKa2 of the complex” value is listed as 10.13 ± 0.04. Besides, the “logK′ (H2O/Cl−) conditional exchange constant” value in data set [1] (UV-vis) was determined as 1.28 ± 0.01. Also, in data set [1] (UV-vis, chloride-free), the “pKa1 of the complex” value is 8.78 ± 0.01 and the “pKa2 of the complex” value came out at 10.03 ± 0.02. The “FHA logKFHA′” value with Ac-Phe–His–Ala-NH2 (FHA) is on record as 4.6 ± 0.2. Moreover, the “late apoptosis and necrosis” value in the data set on Colo-205 cells worked out at 5.4%.
As for `O=C(O)[C@H]1CCCCN1Cc1cc(Cl)c2cccnc2c1O` [HQCl-D-hPro, (R)-5-chloro-7-((homoproline-1-yl)methyl)8-hydroxyquinoline], in the data set with Colo-205 cells, the “cell death (Q1, A− PI+), gated events” value was determined as 27.5%; the “early apoptosis (Q3, A+ PI−)” value is given as 0.987%; the “late apoptosis and necrosis” value is given as 9.1%.
Regarding `Cc1c(C)c(C)[c-](C)c1C.O=C(O)[C@H]1CCCC[NH+]1Cc1cc(Cl)c2cccnc2c1[O-].[Cl-].[Cl-].[Rh+3]` [RhCp*–HQCl-D-hPro, [RhCp*(HQCl-D-hPro)Cl]Cl], in data set [1] (1H NMR), the “pKa1 of the complex” value is 9.82 ± 0.13 ^a and the “pKa2 of the complex” value is reported as 10.06 ± 0.06 ^b. In addition, in data set [1] (UV-vis), the “logK′ (H2O/Cl−) conditional exchange constant” value came out at 1.79 ± 0.01. In addition, the “pKa1 of the complex” value in data set [1] (UV-vis, chloride-free) is given as 10.11 ± 0.02. Besides, in the data set on Ac-Phe–His–Ala-NH2 (FHA), the “FHA logKFHA′” value was 4.5 ± 0.2. Besides, in the data set on Colo-205 cells, the “cell death (Q1, A− PI+), gated events” value is 20.7%; the “early apoptosis (Q3, A+ PI−)” value is on record as 0.838%; the “late apoptosis and necrosis” value was 7.5%. Moreover, the “late apoptosis and necrosis” value in the data set with Colo-205 cells (listed as RhCp*‒HQCl-D-hPro) is listed as 7.50%.

These data come from publication PMC8570331, “8-Hydroxyquinoline-Amino Acid Hybrids and Their Half-Sandwich Rh and Ru Complexes: Synthesis, Anticancer Activities, Solution Chemistry and Interaction with Biomolecules” (International Journal of Molecular Sciences, 2021).
